# How the values were obtained:
# Format in all cases: in vivo
# [1] = test system: bird's eye speedwell (Veronica persica Poir.), Vp; test: Test Example 4: herbicidal effect on upland weeds after emergence; conditions: dosage 5 kg/ha; sprayed after emergence; judged 14 days after treatment
# Procedure, shortened: (§1)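 Weeds and soybean grown in soil-filled vats to set leaf stages, then sprayed post-emergence with the compound at a prescribed concentration. Weed-killing rate and crop phytotoxicity judged 14 days after treatment.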
# [2] = test system: cocklebur (Xanthium strumarium L.), Xs; test: as above; conditions: dosage 5 kg/ha; sprayed after emergence; judged 14 days after treatment
# Procedure, shortened: as §1
# [3] = test system: cleavers (Galium aparine L.), Ga; test: as above; conditions: dosage 5 kg/ha; sprayed after emergence; judged 14 days after treatment
# Procedure, shortened: as §1
# [4] = test system: velvetleaf (Abutilon theophtasti L.), At; test: as above; conditions: dosage 5 kg/ha; sprayed after emergence; judged 14 days after treatment
# Procedure, shortened: as §1
# [5] = test system: barnyard grass (Echinochloa crus-galli Beauv.), Ec; test: as above; conditions: dosage 5 kg/ha; sprayed after emergence; judged 14 days after treatment
# Procedure, shortened: as §1
# [6] = test system: forxtail grass (Alopecurus aequalis var. amurensis Ohwi), Am; test: as above; conditions: dosage 5 kg/ha; sprayed after emergence; judged 14 days after treatment
# Procedure, shortened: as §1
# soybean plant (So) = test: Test Example 3: phytotoxicity to upland crop plants, treatment before emergence; conditions: dosage 5 kg/ha
# Procedure, shortened: (§2)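 Pre-emergence spray of a liquid preparation at a prescribed compound concentration. Soybean and wheat injury was scored against a phytotoxicity criterion 14 days after treatment, alongside weed control.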
# wheat (Wh) = test: as above; conditions: dosage 5 kg/ha
# Procedure, shortened: as §2
# [7] = test system: bird's eye speedwell (Veronica persica Poir.), Vp; test: Test Example 3: herbicidal effect on upland weeds before emergence; conditions: dosage 5 kg/ha
# Procedure, shortened: (§3)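 Test compound, formulated as a liquid at a fixed concentration, is sprayed before weed emergence. Two weeks later, kill rate is derived and herbicidal activity is rated.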
# [8] = test system: cocklebur (Xanthium strumarium L.), Xs; test: as above; conditions: dosage 5 kg/ha
# Procedure, shortened: as §3
# [9] = test system: cleavers (Galium aparine L.), Ga; test: as above; conditions: dosage 5 kg/ha
# Procedure, shortened: as §3
# [10] = test system: velvetleaf (Abutilon theophtasti L.), At; test: as above; conditions: dosage 5 kg/ha
# Procedure, shortened: as §3
# [11] = test system: barnyard grass (Echinochloa crus-galli Beauv.), Ec; test: as above; conditions: dosage 5 kg/ha
# Procedure, shortened: as §3
# [12] = test system: forxtail grass (Alopecurus aequalis var. amurensis Ohwi), Am; test: as above; conditions: foxtail grass, dosage 5 kg/ha
# Procedure, shortened: as §3
# soybean plant = test: Test Example 4: phytotoxicity to upland crop plants, treatment after emergence; conditions: dosage 5 kg/ha, sprayed after emergence, judged 14 days after treatment
# Procedure, shortened: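 Post-emergence foliar spray at a prescribed concentration, applied once the sown weeds and soybean reached defined leaf stages in soil vats; herbicidal effect and soybean injury scored after 14 days.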
# wheat = test: as above; conditions: dosage 5 kg/ha, sprayed after emergence, judged 14 days after treatment
# Procedure, shortened: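 Seeds sown in soil and covered. Plants raised to specified leaf stages. Agent with test compound at a prescribed concentration sprayed. Herbicidal effect and crop damage scored after 14 days as weed-killing rate.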
# [13] = test system: bulrush (Scirpus juncoides Roxb.); test: Test Example 2: herbicidal effect on paddy field weeds after emergence; conditions: Dosage 5 kg/ha; one-leaved stage; 21 days after treatment
# Procedure, shortened: (§4)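 Weeds in flooded paddy-soil pots were grown to the one-leaved stage, then the soil was treated with the compound solution at a set dosage.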
# [14] = test system: barnyard grass (Echinochloa crus-galli Beauv.); test: as above; conditions: Dosage 5 kg/ha; one-leaved stage; 21 days after treatment
# Procedure, shortened: as §4
# [15] = test system: monochoria (Monochoria vaginalis Presl); test: as above; conditions: Dosage 5 kg/ha; one-leaved stage; 21 days after treatment
# Procedure, shortened: as §4
# [16] = test system: bulrush (Scirpus juncoides Roxb.); test: Test Example 1: herbicidal effect on paddy field weeds before emergence; conditions: Dosage 5 kg/ha
# Procedure, shortened: (§5)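 Soil in pots is brought to paddy state and seeded with barnyard grass and bulrush; before germination, the soil receives a predetermined dosage of test compound in solution. After twenty-one days, control rate relative to untreated pots is calculated and graded.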
# [17] = test system: barnyard grass (Echinochloa crus-galli Beauv.); test: as above; conditions: Dosage 5 kg/ha
# Procedure, shortened: as §5
Structure (SMILES),Herbicidal effect Vp [1],Herbicidal effect Xs [2],Herbicidal effect Ga [3],Herbicidal effect At [4],Herbicidal effect Ec [5],Herbicidal effect Am [6],Phytotoxicity So (soybean plant (So)),Phytotoxicity Wh (wheat (Wh)),Herbicidal effect Vp [7],Herbicidal effect Xs [8],Herbicidal effect Ga [9],Herbicidal effect At [10],Herbicidal effect Ec [11],Herbicidal effect Am [12],Phytotoxicity So (soybean plant),Phytotoxicity Wh (wheat),Post-emergence treatment Bulrush (herbicidal effect) [13],Post-emergence treatment Barnyard grass (herbicidal effect) [14],Post-emergence treatment Monochoria (herbicidal effect) [15],Pre-emergence treatment Bulrush (herbicidal effect) [16],further results
CCCNC(=O)c1nc2cc3c(cc2cc1C(=O)Nc1c(CC)ccc(Cl)c1CC)OCO3 [compound 334],4 (Weed-killing rate is 90-99%.),3 (Weed-killing rate is 70-89%.),3 (Weed-killing rate is 70-89%.),4 (Weed-killing rate is 90-99%.),4 (Weed-killing rate is 90-99%.),3 (Weed-killing rate is 70-89%.),0 (Crop-killing rate is 0-20% (No Phytotoxicity).),2 (Crop-killing rate is 40-69%.),4 (Weed-killing rate is 90-99%.),3 (Weed-killing rate is 70-89%.),3 (Weed-killing rate is 70-89%.),5 (Weed-killing rate is 100%.),4 (Weed-killing rate is 90-99%.),4 (Weed-killing rate is 90-99%.),1 (Crop-killing rate is 1-39%.),2 (Crop-killing rate is 40-69%.),4 (Weed-killing rate is 90-99%.),4 (Weed-killing rate is 90-99%.),5 (Weed-killing rate is 100%.),4 (Weed-killing rate is 90-99%.),Pre-emergence treatment Barnyard grass (herbicidal effect) [17]: 5 (Weed-killing rate is 100%.)
CCc1ccc(Cl)c(CC)c1NC(=O)c1cc2cc3c(cc2nc1C(=O)NCC(C)C)OCO3 [compound 339],4 (Weed-killing rate is 90-99%.),2 (Weed-killing rate is 40-69%.),2 (Weed-killing rate is 40-69%.),4 (Weed-killing rate is 90-99%.),4 (Weed-killing rate is 90-99%.),3 (Weed-killing rate is 70-89%.),0 (Crop-killing rate is 0-20% (No Phytotoxicity).),1 (Crop-killing rate is 1-39%.),4 (Weed-killing rate is 90-99%.),2 (Weed-killing rate is 40-69%.),3 (Weed-killing rate is 70-89%.),4 (Weed-killing rate is 90-99%.),4 (Weed-killing rate is 90-99%.),4 (Weed-killing rate is 90-99%.),1 (Crop-killing rate is 1-39%.),2 (Crop-killing rate is 40-69%.),2 (Weed-killing rate is 40-69%.),3 (Weed-killing rate is 70-89%.),4 (Weed-killing rate is 90-99%.),3 (Weed-killing rate is 70-89%.),Pre-emergence treatment Barnyard grass (herbicidal effect) [17]: 4 (Weed-killing rate is 90-99%.)
CCc1ccc(Cl)c(CC)c1NC(=O)c1cc2cc3c(cc2nc1C(=O)NC1CCCC1)OCO3 [compound 343],3 (Weed-killing rate is 70-89%.),2 (Weed-killing rate is 40-69%.),2 (Weed-killing rate is 40-69%.),3 (Weed-killing rate is 70-89%.),4 (Weed-killing rate is 90-99%.),2 (Weed-killing rate is 40-69%.),0 (Crop-killing rate is 0-20% (No Phytotoxicity).),0 (Crop-killing rate is 0-20% (No Phytotoxicity).),4 (Weed-killing rate is 90-99%.),2 (Weed-killing rate is 40-69%.),3 (Weed-killing rate is 70-89%.),3 (Weed-killing rate is 70-89%.),4 (Weed-killing rate is 90-99%.),3 (Weed-killing rate is 70-89%.),0 (Crop-killing rate is 0-20% (No Phytotoxicity).),0 (Crop-killing rate is 0-20% (No Phytotoxicity).),3 (Weed-killing rate is 70-89%.),3 (Weed-killing rate is 70-89%.),5 (Weed-killing rate is 100%.),3 (Weed-killing rate is 70-89%.),Pre-emergence treatment Barnyard grass (herbicidal effect) [17]: 5 (Weed-killing rate is 100%.)
CCCNC(=O)c1nc2ncccc2cc1C(=O)Nc1c(CC)ccc(Cl)c1CC [compound 361],5 (Weed-killing rate is 100%.),5 (Weed-killing rate is 100%.),5 (Weed-killing rate is 100%.),5 (Weed-killing rate is 100%.),5 (Weed-killing rate is 100%.),5 (Weed-killing rate is 100%.),4 (Crop-killing rate is 90-99%.),4 (Crop-killing rate is 90-99%.),5 (Weed-killing rate is 100%.),5 (Weed-killing rate is 100%.),5 (Weed-killing rate is 100%.),5 (Weed-killing rate is 100%.),5 (Weed-killing rate is 100%.),5 (Weed-killing rate is 100%.),4 (Crop-killing rate is 90-99%.),5 (Crop-killing rate is 100%.),5 (Weed-killing rate is 100%.),5 (Weed-killing rate is 100%.),5 (Weed-killing rate is 100%.),5 (Weed-killing rate is 100%.),Pre-emergence treatment Barnyard grass (herbicidal effect) [17]: 5 (Weed-killing rate is 100%.)
CCCNC(=O)c1nc2ncccc2cc1C(=O)Nc1cccc(Cl)c1C [compound 375],5 (Weed-killing rate is 100%.),5 (Weed-killing rate is 100%.),5 (Weed-killing rate is 100%.),5 (Weed-killing rate is 100%.),5 (Weed-killing rate is 100%.),5 (Weed-killing rate is 100%.),3 (Crop-killing rate is 70-89%.),3 (Crop-killing rate is 70-89%.),5 (Weed-killing rate is 100%.),5 (Weed-killing rate is 100%.),5 (Weed-killing rate is 100%.),5 (Weed-killing rate is 100%.),5 (Weed-killing rate is 100%.),5 (Weed-killing rate is 100%.),4 (Crop-killing rate is 90-99%.),4 (Crop-killing rate is 90-99%.),5 (Weed-killing rate is 100%.),5 (Weed-killing rate is 100%.),5 (Weed-killing rate is 100%.),5 (Weed-killing rate is 100%.),Pre-emergence treatment Barnyard grass (herbicidal effect) [17]: 5 (Weed-killing rate is 100%.)
